Results: the supplement of paper PMC10307832

How the values were obtained:
Test in all cases: relative viability (nuclei count vs DMSO), 5 days (fraction); higher = more cells survive
[1] = compound: CCC1=CN=CN=C1N2CCN(CC2)CC3=NC4=C(N3)C=C(C=C4)C(F)(F)F + C[C@@H](Oc1cc(-c2cnn(C3CCNCC3)c2)cnc1N)c1c(Cl)ccc(F)c1Cl [Crizotinib] (partner 1 µM)
In short: (§1)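 For relative viability, nuclei counts in treated wells were divided by those in vehicle wells. Lung cancer cell lines had been pin-tool dosed in 1536-well plates the day after seeding and cultured for 5 days, then fixed and stained in one step (final 0.05% Triton X-100, 1% formaldehyde, 1 ug/ml Hoechst) and imaged at 4×. Doses were one drug alone or a fixed anchor-drug dose plus five library-drug doses (not always all listed) in √10 steps, and values are duplicate-plate medians.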

[2] = compound: CCn1c(-c2nonc2N)nc2cnc(Oc3cccc(NC(=O)c4ccc(OCCN5CCOCC5)cc4)c3)cc21 + Nc1ncn([C@H]2C[C@H](O)[C@@H](CO)O2)c(=O)n1 [Decitabine] (partner 2 µM)
In short: as §1

Mirin + Luminespib = compound: N=C1NC(=O)/C(=C/c2ccc(O)cc2)S1 [Mirin] + CCNC(=O)c1noc(-c2cc(C(C)C)c(O)cc2O)c1-c1ccc(CN2CCOCC2)cc1 [Luminespib] (partner 0.01 µM)
In short: as §1

[3] = compound: CCC1=CN=CN=C1N2CCN(CC2)CC3=NC4=C(N3)C=C(C=C4)C(F)(F)F + CC(C)C[C@H](NC(=O)[C@H](Cc1ccccc1)NC(=O)c1cnccn1)B(O)O [Bortezomib] (partner 0.002 µM)
In short: as §1

Row | Cell Line | relative viability ([1]; first compound 0.04 µM) | relative viability ([1]; first compound 0.1265 µM) | relative viability ([1]; first compound 0.4 µM) | relative viability ([1]; first compound 1.265 µM) | relative viability ([1]; first compound 4 µM) | relative viability ([2]; first compound 0.04 µM) | relative viability ([2]; first compound 0.1265 µM) | relative viability ([2]; first compound 0.4 µM) | relative viability ([2]; first compound 1.265 µM) | relative viability ([2]; first compound 4 µM) | relative viability (Mirin + Luminespib; first compound 0.25 µM) | relative viability (Mirin + Luminespib; first compound 0.7906 µM) | relative viability (Mirin + Luminespib; first compound 2.5 µM) | relative viability (Mirin + Luminespib; first compound 7.906 µM) | relative viability (Mirin + Luminespib; first compound 25 µM) | relative viability ([3]; first compound 0.04 µM) | relative viability ([3]; first compound 0.1265 µM) | relative viability ([3]; first compound 0.4 µM) | relative viability ([3]; first compound 4 µM) | relative viability ([3]; first compound 1.265 µM)
1 | NCI-H2170 | 1.12 | 1.18 | 1.2 | 1.27 | 1.49 | 0.473 | 0.494 | 0.494 | 0.474 | 0.431 | 0.828 | 0.656 | 0.934 | 0.693 | 0.663 | – | – | – | – | –
2 | HCC-366 | 0.622 | 0.493 | 0.579 | – | 1.15 | 0.342 | 0.338 | 0.482 | 0.108 | 0.0747 | – | – | – | – | – | 1 | 1.06 | 1.05 | 1.01 | –
3 | NCI-H2405 | 0.847 | 0.867 | 0.855 | – | 1.02 | 0.68 | 0.473 | 0.327 | 0.251 | 0.241 | 0.624 | 0.586 | 0.664 | 0.702 | 0.649 | 0.892 | 0.703 | 0.968 | 1 | –
4 | COR-L 105 | 0.861 | 0.795 | 0.972 | 0.922 | 1.24 | 0.669 | 0.512 | 0.596 | 0.432 | 0.377 | 0.741 | 0.852 | 0.692 | 0.51 | 0.544 | 0.861 | 0.913 | 0.737 | 0.836 | 0.475
5 | 201T | 0.985 | 0.993 | 1.03 | 1.02 | 1.12 | 0.825 | 0.834 | 0.823 | 0.86 | 0.827 | 1.05 | 1.11 | 1.08 | 1.09 | 1.14 | 1.09 | 1.06 | 1.04 | 1.14 | 1.09
6 | NCI-H2228 | 0.474 | 0.586 | 0.417 | 0.428 | 0.524 | – | – | – | – | – | 0.144 | 0.166 | 0.159 | 0.129 | 0.114 | 1.29 | 1.11 | 1.19 | 1.11 | 1.05
7 | LC-2-ad | 0.501 | 0.431 | 0.503 | 0.749 | 0.852 | 0.769 | 0.755 | 0.818 | 0.642 | 0.615 | 1.02 | 0.837 | 1.05 | 0.968 | 0.721 | 0.993 | 0.959 | 0.969 | 0.952 | 0.963
8 | NCI-H2085 | 0.86 | 0.909 | 0.93 | 0.892 | 0.948 | 0.433 | 0.581 | 0.528 | 0.466 | 0.472 | 0.422 | 0.343 | 0.46 | 0.473 | 0.453 | 0.927 | 0.949 | 1.13 | 1.04 | 1.03
9 | NCI-H358 | 0.581 | 0.73 | 0.92 | 1.15 | 1.68 | 0.219 | 0.273 | 0.19 | 0.198 | 0.161 | 0.562 | 0.408 | 0.502 | 0.36 | 0.413 | – | – | – | – | –
10 | H3255 | 0.864 | 0.888 | 0.794 | 0.757 | 0.941 | 0.774 | 0.594 | 0.63 | 0.403 | 0.518 | 0.825 | 0.79 | 0.943 | 0.712 | 0.821 | 0.671 | 0.849 | 0.739 | 0.756 | 0.816
11 | NCI-H23 | 0.591 | 0.559 | 0.574 | 0.689 | 0.989 | 0.362 | 0.342 | 0.334 | 0.234 | 0.263 | 0.21 | 0.186 | 0.2 | 0.234 | 0.186 | 0.868 | 1.13 | 0.905 | 1.16 | 0.98
12 | CAL-12T | 0.629 | 0.621 | 0.805 | 0.808 | 1.12 | – | – | – | – | – | 0.364 | – | 0.369 | 0.696 | 0.548 | – | 0.997 | 0.888 | 1.07 | 1.06
13 | A-427 | 0.918 | 0.825 | 1.04 | 0.714 | 0.865 | 0.542 | 0.517 | 0.475 | 0.278 | 0.291 | 0.756 | 1.01 | 0.905 | 0.89 | 0.952 | 0.926 | 0.896 | 0.936 | 0.989 | 0.878
14 | HARA | 1.06 | 0.972 | 1.01 | 1.03 | 1.18 | 0.598 | 0.665 | 0.684 | 0.283 | 0.206 | 0.808 | – | 0.693 | 0.773 | 0.372 | 1.12 | 1.05 | 1.06 | 0.964 | 1.01
15 | NCI-H1793 | – | – | – | – | – | 0.36 | 0.474 | 0.499 | 0.457 | 0.369 | 0.572 | – | 0.235 | 0.196 | 0.171 | – | – | – | – | –
